Laboratory results reported in the supplement of paper PMC13380429.

Experiments:
A549-ACE2 [1] = assay: drug-induced phospholipidosis relative to tamoxifen; higher = more phospholipidosis
HepG2 [2] = assay: relative viability EC50 (midpoint between 100% and the lowest measured viability); higher = less toxic; conditions: 72 h
Caco-2 [3] = assay: as above; conditions: 72 h
Calu-3 [4] = assay: as above; conditions: 72 h
Vero E6 [5] = assay: as above; conditions: 72 h
U2OS [6] = assay: as above; conditions: 72 h
[7] = system: A549-ACE2 infected with SARS-CoV-2; assay: cell count relative to DMSO; higher = less toxic; conditions: 24 h
[8] = system: A549-ACE2 infected with SARS-CoV-2; assay: SARS-CoV-2 infection rate relative to DMSO; higher = more infection; conditions: 24 h
HepG2 [9] = assay: cell viability relative to DMSO; higher = less toxic; conditions: 72 h
Caco-2 [10] = assay: as above; conditions: 72 h
Calu-3 [11] = assay: as above; conditions: 72 h
Vero E6 [12] = assay: as above; conditions: 72 h
U2OS [13] = assay: as above; conditions: 72 h
HepG2 [14] = assay: drug sensitivity score (DSS) for viability; higher = more toxic; extreme values may be limits of the assay; conditions: 72 h
Caco-2 [15] = assay: as above; conditions: 72 h
Calu-3 [16] = assay: as above; conditions: 72 h
Vero E6 [17] = assay: as above; conditions: 72 h
U2OS [18] = assay: as above; conditions: 72 h
[19] = system: A549-ACE2 infected with SARS-CoV-2; assay: morphology score (similarity to uninfected cells); higher = more like uninfected cells; conditions: 24 h
A549-ACE2 [20] = assay: phospholipidosis EC50; higher = less potent phospholipidosis inducer

CCCCCCCCCCC(O)C1C=CC2C(=O)N(c3ccccc3)C(=O)C2N1Nc1ccc([N+](=O)[O-])cc1 (stereo unspecified) [A12B4C3]
drug-induced phospholipidosis [%], A549-ACE2 [1]
Conditions | 0.3 µM | 0.833333 µM | 3.33333 µM | 6.66667 µM | 10 µM | 30 µM
24 h | -2.18 | -1.14 | -1.42 | -1.07 | -2.23 | 12.3
48 h | 0.96 | -1.02 | 1.8 | 1.83 | 2.36 | 7.09
72 h | 1.78 | 0.183 | 1.98 | 2.85 | 2.51 | 10.2

Conditions | drug sensitivity score | relative viability EC50 [µM]
Caco-2 [3] | – | > 10
Caco-2 [15] | 0.2 | –
Calu-3 [4] | – | > 10
Calu-3 [16] | 0 | –
HepG2 [2] | – | > 10
HepG2 [14] | 0 | –
U2OS [6] | – | > 10
U2OS [18] | 0 | –
Vero E6 [5] | – | > 10
Vero E6 [17] | 0 | –

Conditions | SARS-CoV-2 infection rate, [8] [%] | cell count, [7] [%] | cell viability, Caco-2 [10] [%] | cell viability, Calu-3 [11] [%] | cell viability, HepG2 [9] [%] | cell viability, U2OS [13] [%] | cell viability, Vero E6 [12] [%] | morphology score, [19]
1 nM | – | – | 96.6 | 98.9 | 96.9 | 97.8 | 93.1 | –
10 nM | – | – | 99 | 104 | 91.2 | 104 | 99.9 | –
100 nM | – | – | 85.9 | 98.4 | 99.2 | 95.5 | 98.3 | –
0.3 µM | 92 | 107 | – | – | – | – | – | 0.31
1000 nM | – | – | 90 | 96.2 | 102 | 99 | 106 | –
3 µM | 95 | 105 | – | – | – | – | – | 0.4
10 µM | 68 | 110 | – | – | – | – | – | 0.65
10000 nM | – | – | 92 | 95.6 | 97.7 | 89 | 102 | –
30 µM | 37 | 104 | – | – | – | – | – | 0.6

O=C1/C(=C/c2ccccc2)C[C@@]2(O)[C@H]3Cc4ccc(O)c5c4[C@@]2(CCN3CC2CC2)[C@H]1O5 [BNTX]
drug-induced phospholipidosis [%], A549-ACE2 [1]
Conditions | 0.3 µM | 0.833333 µM | 3.33333 µM | 6.66667 µM
24 h | 0.73 | 2.81 | 24.9 | 20.5
48 h | 0.39 | 0.51 | 26 | –
72 h | 2.04 | 0.605 | – | –

Conditions | drug sensitivity score | relative viability EC50 [µM]
Caco-2 [3] | – | 2.43
Caco-2 [15] | 4.9 | –
Calu-3 [4] | – | 3.66
Calu-3 [16] | 4.2 | –
HepG2 [2] | – | 1.94
HepG2 [14] | 8.1 | –
U2OS [6] | – | 2.97
U2OS [18] | 5.6 | –
Vero E6 [5] | – | 2.88
Vero E6 [17] | 6.1 | –

Conditions | SARS-CoV-2 infection rate, [8] [%] | cell count, [7] [%] | cell viability, Caco-2 [10] [%] | cell viability, Calu-3 [11] [%] | cell viability, HepG2 [9] [%] | cell viability, U2OS [13] [%] | cell viability, Vero E6 [12] [%] | morphology score, [19]
1 nM | – | – | 100 | 99.5 | 98.3 | 99.5 | 105 | –
10 nM | – | – | 101 | 95.6 | 99.3 | 102 | 102 | –
0.1 µM | 94 | 101 | – | – | – | – | – | 0.09
100 nM | – | – | 91.2 | 102 | 110 | 95.4 | 103 | –
0.3 µM | 93 | 106 | – | – | – | – | – | 0.34
1 µM | 59 | 108 | – | – | – | – | – | 0.64
1000 nM | – | – | 93.8 | 109 | 84.2 | 97.5 | 96.2 | –
3 µM | 11 | 89 | – | – | – | – | – | 0.68
10000 nM | – | – | 30 | 13.1 | 0.5 | 5.7 | 0.4 | –

CCN1CCN(Cc2ccc(C(=O)Nc3ccc(C)c(Oc4ccc5c(c4)CC(=O)N5)c3)cc2C(F)(F)F)CC1 [DDR1-IN-1]
drug-induced phospholipidosis [%], A549-ACE2 [1]
Conditions | 0.3 µM | 0.833333 µM | 3.33333 µM | 6.66667 µM | 10 µM | 30 µM
24 h | 10.6 | 33.4 | 86.8 | 106 | 121 | 89.6
48 h | 6.52 | 20.9 | 67.3 | 89.5 | 109 | 118
72 h | 6.39 | 17.7 | 60.8 | 89.3 | 107 | 126

Conditions | drug sensitivity score | relative viability EC50 [µM]
Caco-2 [15] | 3.9 | –
Calu-3 [16] | 2.3 | –
HepG2 [2] | – | 3.52
HepG2 [14] | 2.8 | –
U2OS [6] | – | > 10
U2OS [18] | 1.3 | –
Vero E6 [17] | 1.1 | –

Conditions | SARS-CoV-2 infection rate [%] | cell count [%] | cell viability [%] | morphology score | phospholipidosis EC50 [µM]
A549-ACE2 [20], 24 h | – | – | – | – | 1.39
A549-ACE2 [20], 48 h | – | – | – | – | 3.2
A549-ACE2 [20], 72 h | – | – | – | – | 4.19
Caco-2 [10], 1 nM | – | – | 102 | – | –
Caco-2 [10], 10 nM | – | – | 94.8 | – | –
Caco-2 [10], 100 nM | – | – | 101 | – | –
Caco-2 [10], 1000 nM | – | – | 88.1 | – | –
Caco-2 [10], 10000 nM | – | – | 58 | – | –
Calu-3 [11], 1 nM | – | – | 97.2 | – | –
Calu-3 [11], 10 nM | – | – | 101 | – | –
Calu-3 [11], 100 nM | – | – | 99.2 | – | –
Calu-3 [11], 1000 nM | – | – | 104 | – | –
Calu-3 [11], 10000 nM | – | – | 50.3 | – | –
HepG2 [9], 1 nM | – | – | 96.5 | – | –
HepG2 [9], 10 nM | – | – | 91.4 | – | –
HepG2 [9], 100 nM | – | – | 90.3 | – | –
HepG2 [9], 1000 nM | – | – | 104 | – | –
HepG2 [9], 10000 nM | – | – | 42.5 | – | –
U2OS [13], 1 nM | – | – | 100 | – | –
U2OS [13], 10 nM | – | – | 98.2 | – | –
U2OS [13], 100 nM | – | – | 99.6 | – | –
U2OS [13], 1000 nM | – | – | 94.5 | – | –
U2OS [13], 10000 nM | – | – | 79.8 | – | –
Vero E6 [12], 1 nM | – | – | 97.4 | – | –
Vero E6 [12], 10 nM | – | – | 99.5 | – | –
Vero E6 [12], 100 nM | – | – | 100 | – | –
Vero E6 [12], 1000 nM | – | – | 100 | – | –
Vero E6 [12], 10000 nM | – | – | 72.9 | – | –
[7], 0.1 µM | – | 102 | – | – | –
[7], 0.3 µM | – | 104 | – | – | –
[7], 1 µM | – | 114 | – | – | –
[7], 3 µM | – | 121 | – | – | –
[8], 0.1 µM | 98 | – | – | – | –
[8], 0.3 µM | 96 | – | – | – | –
[8], 1 µM | 61 | – | – | – | –
[8], 3 µM | 26 | – | – | – | –
[19], 0.1 µM | – | – | – | -0.13 | –
[19], 0.3 µM | – | – | – | -0.1 | –
[19], 1 µM | – | – | – | 0.26 | –
[19], 3 µM | – | – | – | 0.78 | –
